For this test, the system named is NCIH929.1 cells. As to the kind of experiment: Cell viability assay (CellTiter-Glo 2.0, ATP quantification). In kind it is cell-based. Conditions: NCIH929.1 cell viability, CellTiter-Glo 2.0, 96 hr incubation, top concentration 1 μM. An outline of the steps: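 Read-out is CellTiter-Glo 2.0 luminescence (ATP), after 96 h compound exposure at 37 °C, with a day-0 plate giving the CT0 baseline. Duplicate 10-point half-log titration from 1 μM applied to 750 cells/well in RPMI, 10% FBS, 0.05 mM 2-mercaptoethanol.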

Results on 19 compounds are retold here after patent publication US11753397B2, “Cereblon binders for the degradation of ikaros” (C4 Therapeutics, Inc., priority 2018, dated 2023).

In the case of `CCOCC(=O)N1CCC(n2cc(CNc3cccc4c3C(=O)N(C3CCC(=O)NC3=O)C4=O)cn2)CC1` (stereo not shown) [Compound 17, 2-(2,6-dioxopiperidin-3-yl)-4-(((1-(1-(2-ethoxyacetyl)piperidin-4-yl)-1H-pyrazol-4-yl)methyl)amino)isoindoline-1,3-dione], the GI50 (in general, the concentration at which growth is held to half of that of the control) was less than 100 nM.
The result for `CC(C)(C)OC(=O)N1CCC(n2cc(C(Nc3cccc4c3C(=O)N(C3CCC(=O)NC3=O)C4=O)c3cn(C4CCN(C(=O)OC(C)(C)C)CC4)nn3)nn2)CC1` (stereo not shown) [Compound 203, tert-Butyl 4-[4-[[1-(1-tert-butoxycarbonyl-4-piperidyl)triazol-4-yl]-[[2-(2,6-dioxo-3-piperidyl)-1,3-dioxo-isoindolin-4-yl]amino]methyl]triazol-1-yl]piperidine-1-carboxylate] reads greater than 100 nM; that for `CC(C)(N)C(=O)N1CCC(n2cc(CNc3cccc4c3C(=O)N(C3CCC(=O)NC3=O)C4=O)cn2)CC1` (stereo not shown) [Compound 50, 4-(((1-(1-(2-amino-2-methylopropanoyl)piperidin-4-yl)-1H-pyrazol-4-yl)methyl)amino)-2-(2,6-dioxopiperidin-3-yl)isoindoline-1,3-dione], less than 100 nM.
Under `CC1CC(n2cc(CNc3cccc4c3C(=O)N(C3CCC(=O)NC3=O)C4=O)cn2)CC(C)N1C(=O)OC(C)(C)C` (stereo not shown) [Compound 168, tert-Butyl 4-(4-(((2-(2,6-dioxopiperidin-3-yl)-1,3-dioxoisoindolin-4-yl)amino)methyl)-1H-pyrazol-1-yl)-2,6-dimethylpiperidine-1-carboxylate] stands less than 100 nM; under `CC(C)(C)OC(=O)N1CCC(C(=O)N2CCC(n3cc(CNc4cccc5c4C(=O)N(C4CCC(=O)NC4=O)C5=O)cn3)CC2)CC1` (stereo not shown) [Compound 121, tert-butyl 4-(4-(4-(((2-(2,6-dioxopiperidin-3-yl)-1,3-dioxoisoindolin-4-yl)amino)methyl)-1H-pyrazol-1-yl)piperidine-1-carbonyl)piperidine-1-carboxylate], less than 100 nM.
The result for `O=C1CCC(N2C(=O)c3cccc(NCc4cnn(C5CCN(C(=O)CC6CCC(c7ccccc7)CC6)CC5)c4)c3C2=O)C(=O)N1` (stereo not shown) [Compound 117, 2-(2,6-dioxopiperidin-3-yl)-4-(((1-(1-(2-(4-phenylcyclohexyl)acetyl)piperidin-4-yl)-1H-pyrazol-4-yl)methyl)amino)isoindoline-1,3-dione] reads less than 100 nM; that for `O=C1CCC(N2C(=O)c3cccc(NCc4cnn(C5CCN(CC(F)(F)F)CC5)c4)c3C2=O)C(=O)N1` (stereo not shown) [Compound 160, 2-(2,6-Dioxo-piperidin-3-yl)-4-({1-[1-(2,2,2-trifluoro-ethyl)-piperidin-4-yl]-1H-pyrazol-4-ylmethyl}-amino)-isoindole-1,3-dione], less than 100 nM.
As for `CCCC(=O)N1CCC(n2cc(CNc3cccc4c3C(=O)N(C3CCC(=O)NC3=O)C4=O)cn2)CC1` (stereo not shown) [Compound 35, 4-(((1-(1-butyrylpiperidin-4-yl)-1H-pyrazol-4-yl)methyl)amino)-2-(2,6-dioxopiperidin-3-yl)isoindoline-1,3-dione], the GI50 was less than 100 nM.
Under `CC1(C)C[C@H](n2cc(CNc3cccc4c3C(=O)N(C3CCC(=O)NC3=O)C4=O)cn2)CCN1C(=O)C12C3C4C5C3C1C5C42` (stereo partly drawn) [Compound 196, 4-[[1-[(4R)-1-(Cubane-1-carbonyl)-2,2-dimethyl-4-piperidyl]pyrazol-4-yl]methylamino]-2-(2,6-dioxo-3-piperidyl)isoindoline-1,3-dione] stands less than 1 nM; under `CCn1cc(CNc2cccc3c2C(=O)N(C2CCC(=O)NC2=O)C3=O)cn1` (stereo not shown) [Compound 142, 2-(2,6-dioxopiperidin-3-yl)-4-(((1-ethyl-1H-pyrazol-4-yl)methyl)amino)isoindoline-1,3-dione], less than 100 nM.
Under `CC1(C(=O)N2CCC(c3ccccc3)(n3cc(CNc4cccc5c4C(=O)N(C4CCC(=O)NC4=O)C5=O)cn3)CC2)CCC1` (stereo not shown) [Compound 172, 2-(2,6-Dioxopiperidin-3-yl)-4-(((1-(1-(1-methylcyclobutane-1-carbonyl)-4-phenylpiperidin-4-yl)-1H-pyrazol-4-yl)methyl)amino)isoindoline-1,3-dione] stands less than 100 nM; under `CC(C)(C)NC(=O)N1CCC(n2cc(CNc3cccc4c3C(=O)N(C3CCC(=O)NC3=O)C4=O)cn2)CC1` (stereo not shown) [Compound 161, 4-(4-{[2-(2,6-Dioxo-piperidin-3-yl)-1,3-dioxo-2,3-dihydro-1H-isoindol-4-ylamino]-methyl}-pyrazol-1-yl)-piperidine-1-carboxylic acid tert-butylamide], less than 100 nM; under `O=C1CCC(N2C(=O)c3cccc(NCc4cnn(C5CCN(C(=O)CCC6CC6)CC5)c4)c3C2=O)C(=O)N1` (stereo not shown) [Compound 21, 4-(((1-(1-(3-cyclopropylpropanoyl)piperidin-4-yl)-1H-pyrazol-4-yl)methyl)amino)-2-(2,6-dioxopiperidin-3-yl)isoindoline-1,3-dione], less than 100 nM.
Compound `CC1(C(=O)N2CCC(n3ncc(CNc4cccc5c4C(=O)N(C4CCC(=O)NC4=O)C5=O)c3C#CC3CC3)CC2)CCC1` (stereo not shown) [Compound 190, 4-(((5-(Cyclopropylethynyl)-1-(1-(1-methylcyclobutane-1-carbonyl)piperidin-4-yl)-1H-pyrazol-4-yl)methyl)amino)-2-(2,6-dioxopiperidin-3-yl)isoindoline-1,3-dione] had a GI50 of less than 100 nM.
Under `O=C1CCC(N2C(=O)c3cccc(NCc4cnn(C5CCN(CC6(C#CC7CC7)CCC6)CC5)c4)c3C2=O)C(=O)N1` (stereo not shown) [Compound 204, 4-({1-[1-(1-Cyclopropylethynyl-cyclobutylmethyl)-piperidin-4-yl]-1H-pyrazol-4-ylme-thyl}-amino)-2-(2,6-dioxo-piperidin-3-yl)-isoindole-1,3-dione] stands less than 100 nM; under `O=C1CCC(N2C(=O)c3cccc(NCc4cnn(C5CCN(C(=O)C6(c7ccc(F)cc7)CCC6)CC5)c4)c3C2=O)C(=O)N1` (stereo not shown) [Compound 70, 2-(2,6-dioxopiperiidn-3-yl)-4-(((1-(1-(1-(4-fluorophenyl)cyclobutane-1-carbonyl)piperidin-4-yl)-1H-pyrazol-4-yl)methyl)amino)isoindoline-1,3-dione], less than 1 nM.
Under `O=C1CCC(N2C(=O)c3cccc(NCc4cnn(C5CCN(C(=O)CC6CCCCC6)CC5)c4)c3C2=O)C(=O)N1` (stereo not shown) [Compound 27, 4-(((1-(1-(2-cyclohexylacetyl)piperidin-4-yl)-1H-pyrazol-4-yl)methyl)amino)-2-(2,6-dioxopiperidin-3-yl)isoindoline-1,3-dione] stands less than 1 nM.
The result for `O=C1CCC(N2C(=O)c3cccc(NCc4cnn(C5CCN(C(=O)C6(c7ccccc7)COC6)CC5)c4)c3C2=O)C(=O)N1` (stereo not shown) [Compound 69, 2-(2,6-dioxopiperidin-3-yl)-4-(((1-(1-(3-phenyloxetane-3-carbonyl)piperidin-4-yl)-1H-pyrazol-4-yl)methyl)amino)isoindoline-1,3-dione] reads less than 100 nM.
For the compound `CN(C(=O)N1CCC(n2cc(CNc3cccc4c3C(=O)N(C3CCC(=O)NC3=O)C4=O)cn2)CC1)C(C)(C)C` (stereo not shown) [Compound 178, N-(tert-Butyl)-4-(4-(((2-(2,6-dioxopiperidin-3-yl)-1,3-dioxoisoindolin-4-yl)amino)methyl)-1H-pyrazol-1-yl)-N-methylpiperidine-1-carboxamide], the GI50 was less than 100 nM.
